# Tests used:
# [1] = tested on: dementia-mimic rats; assay: water maze test in dementia-mimic animal model; format: in vivo, Wistar rats
# Experimental: (§1) Specifically, 12-week-old Wister rats (350 g to 380 g) were used for the experiments. After obtaining the experimental animals, appearance was visually inspected and then normal symptoms were observed during a 7-day acclimation period. Healthy animals were selected therefrom and assigned to groups by a random method according to body weight ranges, and then experiments were performed. During the acclimation and experiment, a constant breeding environment was maintained under the conditions of a temperature of 23±3° C., a relative humidity of 50±10%, a ventilation frequency of 12 times to 16 times per hour, a 12-hour light-dark cycle (light on at 7:00, light off at 19:00), and an intensity of illumination of 150 Lx to 300 Lx. Experiments were performed using sterilized instruments, and the rats were allowed free access to tap water and a solid feed (PMI nutrition, USA) for 24 hours.
# (§2) In order to construct a vascular dementia-mimic animal model, chronic cerebral hypoperfusion was induced by bilateral common carotid artery occlusion (2VO, hereinafter referred to as “brain damage (BCCA0)”) (Wakita et al., 1994). The rats were anesthetized with 4% isoflurane, and the anesthesia was maintained by 1.5% isoflurane during the operation. The central neck was incised to expose the bilateral common carotid artery carefully so as not to cause damage to the vagal nerve. Ligation was performed twice with No. 3 silk, thereby constructing an animal model in which dementia was induced by brain damage.
# (§3) After 21 days from the BCCA0 operation, the Wistar rats were orally administered with mumefural for 42 days. The rats were divided into 5 groups listed in Table 1 below, and controls were orally administered with saline. Different concentrations of mumefural were set in the oral administration as low concentration (20 mg/kg), medium concentration (40 mg/kg), and high concentration (80 mg/kg).
# In order to investigate effects of mumefural on enhancing spatial memory in the dementia-mimic animal model, a water maze test was performed after administering mumefural in the same manner as in Example 1 above.
# Specifically, a circular water tank (diameter: 180 cm, height: 58 cm) was filled with water at a temperature of 26±2° C. up to 2 cm above a marked platform, screen walls were set up on all sides of the water tank to prevent light from coming through, and a pigment was added thereto to make the water opaque. In addition, labels were attached to given positions (diameter: 12 cm, height: 33.5 cm) of the screen walls to give clues for the rats to search for the marked platform. Spatial memory training was performed […] for 8 days every morning (from 9:00 a.m.) once per day 8 times in total. Time taken for the rats to find the hidden platform and escape latency thereof were measured and regarded as markers of memory, and reduced time of every group was compared every day. Thereafter, a water maze test was performed after 8 days from the training. In this test, time taken for the rats to first find the hidden platform was measured and used as a marker of memory. That is, a shorter time is regarded as more improved recognition ability.
# [2] = tested on: ChAT-positive cholinergic cells; assay: immunohistostaining of ChAT-positive cholinergic cells in basal forebrain; format: in vivo, Wistar rats; conditions: BCCAo rats, oral mumefural; compared with the negative control; FIGS. 4A, 4B
# Experimental: (§4) Specifically, 12-week-old Wister rats (350 g to 380 g) were used for the experiments. After obtaining the experimental animals, appearance was visually inspected and then normal symptoms were observed during a 7-day acclimation period. Healthy animals were selected therefrom and assigned to groups by a random method according to body weight ranges, and then experiments were performed. […]
# In order to investigate effects of mumefural on normalization of the cholinergic system in the dementia-mimic animal model, mumefural was administered in the same manner as in Example 1, and then the number of cholinergic neurons of the basal forebrain was measured.
# Specifically, the brain was excised from each of the dementia-mimic rats after administration of mumefural was completed and sectioned into slices with a thickness of 40 μm. Subsequently, the cholinergic neurons of the basal forebrain were detected using choline acetyltransferase (ChAT) protein, which is known to be expressed in cholinergic neurons. The slices were stained by immunohistostaining using an anti-ChAT antibody as a primary antibody and a donkey anti-goat antibody as a secondary antibody, and anti-ChAT positive cells were detected.
# [3] = tested on: ChAT, VAChT, and AChE proteins; assay: western blot of ChAT, VAChT, and AChE proteins in basal forebrain; format: in vivo; conditions: compared with the negative control; FIGS. 5A, 5B
# Experimental: as §1, §2, §3
# [4] = tested on: ChAT, VAChT, and AChE proteins; assay: western blot of ChAT, VAChT, and AChE proteins in hippocampus; format: in vivo; conditions: compared with the negative control; FIGS. 7A, 7B
# Experimental: as §1, §2, §3
# [5] = tested on: AChE; assay: enzyme-linked immunosorbent assay of AChE activity in hippocampus; format: in vivo; conditions: compared with the negative control; FIG. 8
# Experimental: as §1
# (§5) In order to construct a vascular dementia-mimic animal model, chronic cerebral hypoperfusion was induced by bilateral common carotid artery occlusion (2VO, hereinafter referred to as “brain damage (BCCA0)”) (Wakita et al., 1994). The rats were anesthetized with 4% isoflurane, and the anesthesia was maintained by 1.5% isoflurane during the operation. The central neck was incised to expose the bilateral common carotid artery carefully so as not to cause damage to the vagal nerve. […]
# [6] = tested on: MBP; assay: western blot of MBP in hippocampus; format: in vivo, Wistar rats; conditions: compared with the negative control, FIG. 10
# Experimental: as §1, §5
# [7] = tested on: phospho-CAMKII protein; assay: western blot of phospho-CAMKII in hippocampus; format: in vivo, Wistar rats; conditions: compared with the negative control; FIGS. 13A, 13B
# Experimental: as §4
# In order to investigate effects of mumefural on normalization of damaged hippocampus in the dementia-mimic animal model, mumefural was administered in the same manner as in Example 1, and then expression levels of neurotransmitter secretion substances in the hippocampus were analyzed.
# Specifically, the hippocampus was excised from each of the dementia-mimic rats after administration of mumefural was completed, and proteins were extracted therefrom. Expression levels of phospho-Ca^2+/calmodulin-dependent protein kinase II (phospho-CAMKII) and Ca^2+/calmodulin-dependent protein kinase II (CAMKII) proteins were analyzed by western blotting. β-Actin was used as a loading control.
# [8] = tested on: microglia; assay: immunohistostaining of lba-1 (microglia) in hippocampus and white matter; format: in vivo, Wistar rats; conditions: compared with the negative control
# Experimental: as §1, with “hours. […]” for “hours.”
# (§6) In order to investigate effects of mumefural on normalization of damaged hippocampus and corpus callosum of white matter in the dementia-mimic animal model, mumefural was administered in the same manner as in Example 1, and then microglia and astrocytes were detected in the hippocampus and white matter to identify gliosis. […]
# [9] = tested on: astrocytes; assay: immunohistostaining of GFAP (astrocytes) in hippocampus and white matter; format: in vivo, Wistar rats
# Experimental: as §1, §2
# After 21 days from the BCCA0 operation, the Wistar rats were orally administered with mumefural for 42 days. The rats were divided into 5 groups listed in Table 1 below, and controls were orally administered with saline. […]
# as §6
compound,measurement,setting,value
O=Cc1ccc(COC(=O)CC(O)(CC(=O)O)C(=O)O)o1 (centres unmarked) [mumefural],latency to find the hidden platform vs normal control,"[1]; BCCAo rats, 20 mg/kg, 40 mg/kg, and 80 mg/kg oral, compared with normal control, FIG. 1",high latency similar to that of the normal control
same,time to first arrive at the hidden platform vs normal control,"[1]; BCCAo rats, 40 mg/kg and 80 mg/kg oral, compared with normal control, FIG. 2",short time similar to that of the normal control
same,time to first arrive at the hidden platform,"[1]; BCCAo rats, oral mumefural 42 days, compared to the negative control, FIG. 2",reduced
same,latency to find the hidden platform (escape latency),"[1]; BCCAo rats, oral mumefural 42 days, compared with the negative control (saline), FIG. 1",increased
same,average swim speeds,"[1]; among the groups (20, 40, 80 mg/kg, controls), FIG. 3",no difference
same,number of cells positive for the anti-ChAT antibody in the basal forebrain,[2],significantly increased
same,expression level of AChE protein in the basal forebrain,[3],reduced
same,expression level of ChAT protein in the basal forebrain,[3],increased
same,expression level of VAChT protein in the basal forebrain,[3],increased
same,expression level of AChE protein in the hippocampus,[4],decreased
same,expression level of ChAT protein in the hippocampus,[4],increased
same,expression level of VAChT protein in the hippocampus,[4],increased
same,activity of AChE in the hippocampus,[5],decreased
same,density of the MBP in the hippocampus,[6],increased
same,expression level of the phospho-CAMKII protein in hippocampus,[7],significantly increased
same,numbers of microglia (lba-1 positive cells) in the hippocampus,"[8]; FIGS. 15A, 15B",significantly decreased
same,numbers of microglia (lba-1 positive cells) in the white matter,"[8]; FIGS. 15C, 15D",significantly decreased
same,"numbers of astrocytes, effect vs normal control","[9]; 20 mg/kg, 40 mg/kg, and 80 mg/kg oral, hippocampus and white matter",effects similar to or superior to those of the normal control
same,numbers of astrocytes (GFAP positive cells) in the hippocampus,"[9]; compared with the negative control, FIGS. 16A, 16B",significantly decreased
same,numbers of astrocytes (GFAP positive cells) in the white matter,"[9]; compared with the negative control, FIGS. 16C, 16D",significantly decreased

# Source: US20210106550A1, “COMPOSITIONS FOR PREVENTING OR TREATING COGNITIVE IMPAIRMENT-RELATED DISEASE COMPRISING MUMEFURAL” (KOREA INSTITUTE OF ORIENTAL MEDICINE, priority 2018, published 2021)
